Patent US20170285002A1, “METHOD FOR RECONSTITUTING TUMOR WITH MICROENVIRONMENT” (Public University Corporation Yokohama City University, priority 2016, published 2017)
Each block holds one compound with its values, some of them ahead of it.

Tests used:
[1] = tested on: luciferase gene-transfected human pancreatic cancer cell line; assay: In vitro drug sensitivity of pancreatic cancer organoid versus plane-cultured cells (luciferase activity); format: cell-based
Method: In each graph, the ordinate depicts the amount of luciferase activity of the pancreatic cancer cells, and the abscissa depicts an anti-cancer drug (gemcitabine, nab-paclitaxel, or 5-FU) concentration in a medium. […] Among the pancreatic cancer organoids, cancer organoids with rich-stroma show lower sensitivity to anticancer drugs.
(§1) Each pre-existing human pancreatic cancer cell line was inoculated at 5×10^3 cells/well on a 96-well plate, and gemcitabine (10^−12 to 10^−3 M) was added thereto 24 hours later. Nuclear staining was performed 72 hours after the gemcitabine addition. A cell number was measured using IN Cell Analyzer 2000, and an IC50 value was calculated. In order to specifically detect cancer cells within an organoid and calculate a cancer cell number, luciferase gene-transfected cancer cells were established and used in analysis. A cancer organoid was formed from the luciferase gene-transfected cancer cells, and luminescence was measured in the presence of a luminescent substrate (e.g., Luciferase Assay System from Promega Corp.) to evaluate the number of cancer cells present.
On the other hand, for the large-scale preparation of pancreatic cancer cell organoids having a uniform size, human pancreatic cancer cells, HUVECs, and hMSCs were cocultured using a three-dimensional culture vessel (e.g., ELPLASIA plate from Kuraray Co., Ltd.) to reconstitute a human pancreatic cancer cell line organoid. The pancreatic cancer cells of each line were inoculated at 1×10^4 cells on each well of a 96-well plate which was also inoculated with arbitrary numbers of HUVECs and hMSCs to reconstitute a cancer organoid. The mixing ratio of the cancer cells, HUVECs, and hMSCs was set to 10:0:0, 10:7:1, 10:7:20, 10:7:0, or 10:0:20.
In order to evaluate the drug sensitivity of cancer cells with high accuracy, an approach for quantitatively evaluating only the number of cancer cells within a cancer organoid was studied (FIG. 14). Luciferase gene-transfected cancer cells (CFPAC-1, PANC-1, or CAPAN-2; typically, CFPAC-1) were established, and a cancer organoid was reconstituted. Then, a luminescent substrate was added thereto, and the luminescence intensity of each well was measured using a luminescence plate reader. The luciferase gene-transfected cancer cells were inoculated at various cell numbers onto a multi-well plate, followed by luciferase assay. As a result, the luminescence intensity was confirmed to be proportional to the cell number (FIG. 15). […]
A pancreatic cancer organoid was reconstituted from luciferase gene-transfected pancreatic cancer cells and stromal cells and evaluated for its sensitivity for a pancreatic cancer therapeutic (anti-cancer drug) (FIG. 17). […]

CFPAC-1 = assay: In vitro drug sensitivity of pre-existing human pancreatic cancer cell line (surviving cell number, IC50); format: cell-based; conditions: cells surviving 72 hours after addition
Method: (§2) 8000 cells of human pancreatic cancer cell line were seeded in each well of a 96-well plate, and gemcitabine was added at 24 hours. At 72 hours, the number of viable cells was measured and summarized in a graph. The pancreatic cancer cells of each line were subcutaneously transplanted to NOD/Scid mice. Gemcitabine was intraperitoneally administered at 100 mg/kg from the point in time when the tumor volume reached 100 mm^3. Change in tumor size after the gemcitabine administration was evaluated. The discrepancy between the in vitro anti-cancer drug sensitivity and the in vivo anti-cancer drug sensitivity was confirmed.
as §1
(§3) The in vitro drug sensitivity of a pre-existing human pancreatic cancer cell line CFPAC-1, PANC-1, or SW1990 was evaluated. 10^−12 to 10^−3M GEM was added to the cells cultured for 24 hours, and IC50 was calculated from the number of cells surviving 72 hours after the addition. As a result, IC50 of CFPAC-1, PANC-1, or SW1990 was 0.03 μM, 0.7 μM, or 0.2 μM, respectively (upper panels of FIG. 1). On the other hand, the cancer cells were subcutaneously transplanted to NOD/Scid mice, and the xenograft formed was evaluated for its in vivo drug sensitivity by the administration of GEM at 100 mg/kg.

PANC-1 = assay: as above; format: cell-based; conditions: cells surviving 72 hours after addition
Method: as §2, §1, §3

SW1990 = assay: as above; format: cell-based; conditions: cells surviving 72 hours after addition
Method: as §2, §1, §3

CFPAC-1 xenograft = assay: In vivo drug sensitivity of subcutaneous cell line xenograft; set-up: species or system NOD/Scid mice; conditions: 100 mg/kg intraperitoneal
Method: as §2, with “evaluated.” for “evaluated. The discrepancy between the in vitro anti-cancer drug sensitivity and the in vivo anti-cancer drug sensitivity was confirmed.”
(§4) Each pre-existing human pancreatic cancer cell line was subcutaneously transplanted at 1×10^6 cells to each of 4- to 10-week old female immunodeficient mice (NOD/Scid mice) to prepare a xenograft. The number of xenografts formed and the volume of each xenograft were measured over time. The volume was calculated according to (minor axis×minor axis×major axis/2) mm^3. The intraperitoneal administration of gemcitabine was started from the point in time when the volume of the xenograft formed exceeded 100 mm^3. The dose concentration of gemcitabine was set to 100 mg/kg, 0 mg/kg, 5 mg/kg, or 10 mg/kg, and gemcitabine was administered once every three days for 3 weeks. Then, the xenograft was resected.
(§5) The in vitro drug sensitivity of a pre-existing human pancreatic cancer cell line CFPAC-1, PANC-1, or SW1990 was evaluated. 10^−12 to 10^−3M GEM was added to the cells cultured for 24 hours, and IC50 was calculated from the number of cells surviving 72 hours after the addition.

PANC-1 xenograft = assay: as above; set-up: species or system NOD/Scid mice; conditions: 100 mg/kg intraperitoneal
Method: as §2, with “evaluated.” for “evaluated. The discrepancy between the in vitro anti-cancer drug sensitivity and the in vivo anti-cancer drug sensitivity was confirmed.”
as §4, §5

SW1990 xenograft = assay: as above; set-up: species or system NOD/Scid mice; conditions: 100 mg/kg intraperitoneal
Method: as §2, with “evaluated.” for “evaluated. The discrepancy between the in vitro anti-cancer drug sensitivity and the in vivo anti-cancer drug sensitivity was confirmed.”
as §4, §5

[2] = tested on: pre-existing human pancreatic cancer cell line (CFPAC-1) organoid-derived xenograft; assay: Drug sensitivity of human pancreatic cancer organoid-derived xenograft (tumor volume); format: in vivo, NOD/Scid mice; conditions: for xenograft regression: e.g. 10 mg/kg
Method: After transplantation of the human pancreatic cancer cells or the human pancreatic cancer cell organoid to immunodeficient mice (NOD/Scid), gemcitabine was administered thereto at 3-day intervals from the point in time when the tumor size exceeded 100 mm3. […] A xenograft was prepared by the subcutaneous transplantation of a human pancreatic cancer cell organoid. Then, the intraperitoneal administration of gemcitabine was started from the point in time when the volume of the xenograft exceeded 100 mm^3. The dose concentration of gemcitabine was set to 0 mg/kg, 5 mg/kg, or 10 mg/kg, and the administration frequency and period were set to once every three days for 3 weeks. The volume of the xenograft was measured at appropriate times. […] The in vivo drug sensitivity of a xenograft reconstituted after transplantation of each organoid was evaluated using a typical pancreatic cancer therapeutic Gemzar (gemcitabine: GEM). A pre-existing human pancreatic cancer cell line organoid prepared by the three-dimensional coculture of a pre-existing human pancreatic cancer cell line, HUVECs, and hMSCs was subcutaneously transplanted to NOD/Scid mice. Then, the administration of GEM (e.g., 10 mg/kg) was started from the point in time when the tumor volume exceeded 100 mm^3. A non-GEM-administration group (0 mg/kg) given only physiological saline was set as a control group. GEM was administered once every three days for 30 days with reference made to a treatment regimen for human pancreatic cancer. A xenograft was recovered at GEM administration day 30 and analyzed histologically.

[3] = tested on: CFPAC-1-derived cancer organoid xenograft; assay: Tumor size after discontinuation of gemcitabine administration (recurrence); format: in vivo; conditions: 30 mg/kg for 30 days
Method: Whether a xenograft reconstituted from a cancer organoid could reproduce the recurrence of pancreatic cancer was studied. […] The right diagrams show a macro photograph of the xenograft in each period. […] After cancer organoid (CFPAC-1-derived) transplantation, gemcitabine was administered (30 mg/kg) for 30 days. Then, the gemcitabine administration was discontinued.

[4] = tested on: human lung cancer cell line (A549 cells); assay: In vitro drug sensitivity of human lung cancer cell line organoid (luciferase activity); format: cell-based
Method: FIG. 29 A lung cancer organoid prepared three-dimensionally using a human lung cancer cell line (A549 cells) expressing luciferase gene and EGFP, as well as HUVECs and hMSCs, and a three-dimensional aggregate composed of only pancreatic cancer cells were evaluated for their in vitro drug sensitivity. The left diagrams show a fluorescence phase-contrast microscope image of the lung cancer organoid. In the graph of the right diagram, the ordinate depicts the amount of luciferase activity of the lung cancer cells, and the abscissa depicts an anti-cancer drug (gemcitabine) concentration in the medium. […] A pre-existing human lung cancer cell line (A549) was introduced from ATCC. In the present study, this cell line was introduced and then used at a passage number of 10 or less in experiments. The pre-existing human lung cancer cell line was transfected with luciferase gene in advance. The human lung cancer cell line, HUVECs, and hMSCs were inoculated onto a three-dimensional culture vessel ([…] plate from Kuraray Co., Ltd.) to reconstitute a human lung cancer cell line organoid. The human lung cancer cell line was inoculated at 3×10^3 cells on each well of a 96-well plate which was also inoculated with arbitrary numbers of HUVECs and hMSCs to reconstitute a cancer organoid. The mixing ratio of the cancer cells, HUVECs, and hMSCs was set to 10:0:0, 10:7:1 (Low hMSC), or 10:7:20 (High hMSC). A lung cancer organoid prepared three-dimensionally using a luciferase gene and EGFP expressing human lung cancer cell line (A549 cells), HUVECs, and hMSCs, and a three-dimensional aggregate composed of only pancreatic cancer cells were evaluated for their in vitro drug sensitivity. The left diagrams show a fluorescence phase-contrast microscope image of the lung cancer organoid. In the graph of the right diagram, the ordinate depicts the amount of luciferase activity of the lung cancer cells, and the abscissa depicts an anti-cancer drug (gemcitabine) concentration in a medium.

[5] = tested on: primary human pancreatic cancer cells; assay: In vitro gemcitabine sensitivity of primary human pancreatic cancer organoid (luciferase); format: cell-based; conditions: primary pancreatic cancer organoid versus pancreatic cancer cyst; 72 hours
Method: Pancreatic cancer cells transfected with luciferase gene were used for experiments. […] The three-dimensional coculture method abides by the method for a pancreatic cancer organoid from a pancreatic cancer cell line. […] Luciferase gene-transfected primary human pancreatic cancer cells were established, and a primary pancreatic cancer organoid (pancreatic cancer cells: 2×10^4 cells) was reconstituted in vitro and then cultured for 72 hours in the presence of gemcitabine. Then, a luminescent substrate was added thereto, and the luminescence intensity of each organoid was measured using a luminescence plate reader and analyzed.

[6] = tested on: primary pancreatic cancer organoid xenograft; assay: In vivo drug sensitivity of primary human pancreatic cancer organoid xenograft (tumor size); set-up: species or system immunodeficient mice; conditions: primary organoid transplantation group versus cyst transplantation group; once every three days
Method: FIG. 28 A primary cancer organoid was prepared from a primary cancer cell line, and a xenograft was reconstituted in immunodeficient mice in vivo. […] A primary pancreatic cancer organoid (pancreatic cancer cells: 2×10^5 cells) was reconstituted in vitro and then transplanted to immunodeficient mice. […] Gemcitabine was administered thereto once every three days from the point in time when a xenograft reached 100 mm^3.

[7] = tested on: primary pancreatic cancer organoid; assay: Drug sensitivity of primary human pancreatic cancer organoid versus patient prognosis (luciferase activity); format: cell-based; conditions: organoid from patient having postoperative recurrence; 72 hours
Method: Pancreatic cancer cells were separated from a surgically resected preparation of each pancreatic cancer patient and expanded culture was performed by the cyst culture method to obtain primary human pancreatic cancer cells. […] The obtained primary human pancreatic cancer cells were three-dimensionally cocultured with stromal cells (vascular endothelial cells (HUVECs, etc.) and mesenchymal cells (hMSCs, etc.)) to reconstitute a primary pancreatic cancer organoid. Its drug sensitivity was evaluated. The mixing ratio of these cells at the time of primary pancreatic cancer organoid preparation was 10:7:20. The number of specimens was 2. Primary pancreatic cancer cells were separated from a surgically resected specimen of each pancreatic cancer patient (with or without postoperative recurrence), subjected to expanded culture, and then transfected with luciferase gene. Then, these cancer cells were three-dimensionally cocultured with stromal cells to reconstitute a primary pancreatic cancer organoid. The reconstituted human pancreatic cancer organoid was cultured for 72 hours in the presence of gemcitabine at respective concentrations, followed by luciferase activity measurement.

[8] = tested on: EGFP gene-transfected cancer cells (typically, CFPAC-1) organoid; assay: Residual cells in cancer organoid cultured with anti-cancer drug; format: cell-based, human; conditions: 1 uM, 72 hours
Method: Residual cancer cells expressing GFP and mesenchymal cells expressing αSMA are observed even after anti-cancer drug (gemcitabine) administration. Increase in positive ratio of a cancer stem cell marker Sox9 was confirmed in the residual cancer cells. The properties of cancer cells remaining after anti-cancer drug addition and stromal cells within a cancer organoid were evaluated. EGFP gene-transfected cancer cells (typically, CFPAC-1) were established, and a cancer organoid was reconstituted (the cancer cell:HUVEC:hMSC ratio is, for example, 10:7:10 to 10:7:20). Then, the cancer organoid was cultured for 72 hours in a medium containing 1 uM gemcitabine.

[9] = tested on: pancreatic cancer organoid-derived xenograft; assay: Immunostaining of residual xenograft tissue after gemcitabine administration; format: in vivo, immunodeficient mice
Method: A paraffin section was deparaffinized, then dipped in a citrate buffer, and activated at 121° C. for 20 minutes. After washing with PBS containing 0.05% Tween 20 (PBST) for 5 minutes three times, a buffer for blocking (Dako Japan Co., Ltd.) was added to the section, and blocking reaction was performed at room temperature for 1 hour. Next, a primary antibody solution was added thereto and reacted overnight at 4° C. After the primary antibody (anti-EpCAM antibody, anti-αSMA antibody, anti-cytokeratin 7 (CK7) antibody, anti-CD31 antibody, or anti-laminin antibody) reaction, the section was washed with PBST for 5 minutes three times. A secondary antibody solution diluted with a buffer solution was added thereto and reacted at room temperature for 1 hour in the dark. After the secondary antibody reaction, the section was washed with PBST for 5 minutes three times and mounted on a glass slide using a mounting agent containing a DAPI staining solution (Wako Pure Chemical Industries, Ltd.). A pre-existing human pancreatic cancer cell line was transplanted at 2×10^5 cells to immunodeficient mice. After a xenograft reached 100 mm^3, gemcitabine was administered thereto once every three days. […] A pancreatic cancer cell line was transplanted to immunodeficient mice. Then, gemcitabine administration was started from the point in time when a xenograft reached 100 mm^3. […]

[10] = pancreatic cancer organoid (with HUVECs and hMSCs)
[11] = two-dimensionally cultured pancreatic cancer cells

SMILES: O=c1[nH]cc(F)c(=O)[nH]1 [5-FU]
drug sensitivity (luciferase activity) [1, 10]: lower drug sensitivity | drug sensitivity (luciferase activity) [1, 11]: high sensitivity

drug sensitivity (luciferase activity) [7]: resistance
SMILES: Nc1ccn([C@@H]2O[C@H](CO)[C@@H](O)C2(F)F)c(=O)n1 [gemcitabine]
IC50 (CFPAC-1): 30 nM | IC50 (PANC-1): 700 nM | IC50 (SW1990): 200 nM | tumor regression (CFPAC-1 xenograft): tumor regression was found | tumor regression (PANC-1 xenograft): tumor regression was found | tumor regression (SW1990 xenograft): no tumor regression was found | drug sensitivity (luciferase activity) [1, 10]: lower drug sensitivity | drug sensitivity (luciferase activity) [1, 11]: high sensitivity | increase in xenograft volume ([2]; all transplantation groups, e.g. 10 mg/kg once every three days for 30 days, versus non-GEM group): suppressed | xenograft regression ([2]; organoid with hMSCs in a large number (High hMSC)): exhibited no regression and increased in volume | xenograft regression ([2]; organoids of the other groups): exhibited regression | tumor size after discontinuation of administration ([3]; pancreatic cancer organoid transplantation group): increased markedly | tumor size after discontinuation of administration ([3]; suspension transplantation group): constant tumor size | drug sensitivity (luciferase activity) ([4]; High stroma group (hMSCs and HUVECs with high incidence)): even lower sensitivity | drug sensitivity (luciferase activity) ([4]; lung cancer cell aggregate): high sensitivity | drug sensitivity (luciferase activity) ([4]; organoid culture groups): lower drug sensitivity | drug resistance (luminescence intensity) [5]: significantly high drug resistance | drug resistance (tumor size) [6]: significantly high drug resistance | residual cancer stem cells in organoid [8]: GFP-positive and Sox9-positive cancer stem cells are confirmed to remain | ABCG2-expressing pancreatic cancer cells after administration ([9]; cancer organoid transplantation group, administration day 30): Pancreatic cancer cells expressing ABCG2 are confirmed to remain | Ki67-positive cells after administration ([9]; organoid-derived xenograft, 1 month after start of administration once every three days): high incidence of Ki67-positive cells
